{"source": "paper PMC4844309", "about": "“Identification of a Bioactive Compound against Adult T-cell Leukaemia from Bitter Gourd Seeds” (Plants, 2013)", "key": {"ED cells": {"test_system": "ED cells", "test": "ATL cell proliferation assay (WST-8), ED cells", "type": "cell-based, human", "conditions": "read-out: IC50 (inhibition of cell proliferation), ED", "description": "(§1) ED cells were kindly provided by Dr. M. Maeda (Kyoto University, Kyoto, Japan) and Su9T01 cells were kindly provided by Dr. N. Arima (Kagoshima University, Kagoshima, Japan). The test compounds were dissolved in dimethyl sulfoxide and subjected to assay screening. The method of ATL assay is described in a previous report. IC50 calculation was some curve fitted onto the determined proliferation inhibition points."}, "Su9T01 cells": {"test_system": "Su9T01 cells", "test": "ATL cell proliferation assay (WST-8), Su9T01 cells", "type": "cell-based, human", "conditions": "read-out: IC50 (inhibition of cell proliferation), Su9T01", "description": "as §1"}, "[1]": {"test_system": "phytohemagglutinin-activated human peripheral blood mononuclear cells (PBMC)", "test": "cells", "conditions": "read-out: IC50 (inhibition of PBMC proliferation)", "description": "as §1"}, "HL-60 cells": {"test_system": "HL-60 cells", "parameters": "method as in PMID 22654956, PMID 18959405", "conditions": "human acute myelogenous leukemia cells; cited from earlier work"}, "[2]": {"conditions": "Homo sapiens, ED cells, 72 h incubation in RPMI-1640, WST-8 assay"}, "[3]": {"conditions": "Homo sapiens, Su9T01 cells, 72 h incubation in RPMI-1640, WST-8 assay"}, "[4]": {"conditions": "ED cells, 72 h incubation in RPMI-1640, WST-8 assay"}, "[5]": {"conditions": "Su9T01 cells, 72 h incubation in RPMI-1640, WST-8 assay"}}, "note": "Read-outs that look alike come from different tables or passages of the source."}
{"molecule": "CCCCCCCC/C=C/CCCCCCCC(=O)O", "note": "[elaidic acid]", "values": [{"measurement": "IC50", "setting": "ED cells; Homo sapiens, 72 h", "value": "> 500", "unit": "µM"}, {"measurement": "IC50", "setting": "Su9T01 cells; Homo sapiens, 72 h", "value": "> 500", "unit": "µM"}]}
{"molecule": "CCCCC/C=C\\C/C=C\\CCCCCCCC(=O)O", "note": "[linoleic acid]", "values": [{"measurement": "IC50", "setting": "ED cells; [2]", "value": 101, "unit": "µM"}, {"measurement": "IC50", "setting": "Su9T01 cells; [3]", "value": 180, "unit": "µM"}]}
{"molecule": "CCCCCCCCCCCCCCCCCC(=O)O", "note": "[stearic acid, Stearic acid]", "values": [{"measurement": "IC50", "setting": "Su9T01 cells; [3]", "value": "> 500", "unit": "µM"}]}
{"molecule": "CCCC/C=C/C=C/C=C\\CCCCCCCC(=O)O", "note": "[α-ESA, α-Eleostearic acid]", "values": [{"measurement": "IC50", "setting": "[1]", "value": 31, "unit": "µM"}, {"measurement": "IC50", "setting": "ED cells; Homo sapiens, 72 h", "value": 8.9, "unit": "µM"}, {"measurement": "Anti-leukemic potential in HL-60 cells", "setting": "HL-60 cells", "value": "anti-leukemic potential"}, {"measurement": "IC50", "setting": "Su9T01 cells; Homo sapiens, 72 h", "value": 29.3, "unit": "µM"}]}
{"molecule": "CC/C=C\\C/C=C\\C/C=C\\CCCCCCCC(=O)O", "note": "[α-linolenic acid]", "values": [{"measurement": "IC50", "setting": "ED cells; [4]", "value": 130, "unit": "µM"}, {"measurement": "IC50", "setting": "Su9T01 cells; [5]", "value": 167, "unit": "µM"}]}
{"molecule": "CCCCC/C=C\\C/C=C\\C/C=C\\CCCCC(=O)O", "note": "[γ-linolenic acid, γ-Linolenic acid]", "values": [{"measurement": "IC50", "setting": "ED cells; [2]", "value": 61.3, "unit": "µM"}, {"measurement": "IC50", "setting": "Su9T01 cells; [3]", "value": 174, "unit": "µM"}]}
{"molecule": "Epigallocatechin-3-gallate [EGCG]", "values": [{"measurement": "IC50", "setting": "ED cells; [4]", "value": 153, "unit": "µM"}, {"measurement": "IC50", "setting": "Su9T01 cells; [5]", "value": 166, "unit": "µM"}]}
